Measured values taken from ChEMBL document CHEMBL1145879, “Phosphonooxymethyl prodrugs of the broad spectrum antifungal azole, ravuconazole: synthesis and biological properties” (Bioorg Med Chem Lett, 2003).
≈ marks a conversion by molar mass, not a printed value.

Tests used:
Format in all cases: physicochemical
[1] = Aqueous solubility at pH 7
[2] = Aqueous solubility at pH 6.6
[3] = Aqueous solubility was determined; details: buffer

`C[C@@H](c1nc(-c2ccc(C#N)cc2)cs1)[C@@](Cn1cncn1)(OCOP(=O)(O)O)c1ccc(F)cc1F` [FOSRAVUCONAZOLE] showed a solubility [1] of over 30 µg/mL.

For `C[C@@H](c1nc(-c2ccc(C#N)cc2)cs1)[C@](O)(Cn1c[n+](COP(=O)([O-])O)cn1)c1ccc(F)cc1F`, the solubility [2] was over 30 µg/mL.

Work on `C[C@@H](c1nc(-c2ccc(C#N)cc2)cs1)[C@](O)(Cn1cncn1)c1ccc(F)cc1F` [RAVUCONAZOLE] yielded a solubility [3] of 0.6 µg/mL (≈ 1.37 µM).
